In patent US10172905B1, “Treatment of protein degradation disorders” (President and Fellows of Harvard College, priority 2005, dated 2019):
“Also recorded” adds a separate entry of the source.

What was measured:
[1] = system: MM.1S cells; assay: [3H]-thymidine uptake with or without IL-6; assay type: cell-based, human; details: tubacin 1.25-5 μM, IL-6 5-20 ng/ml, 48 h
Procedure: Proliferation was measured by ^3H-thymidine uptake. Briefly, MM cells (3×10^4 cells/well) were incubated in 96-well culture plates in the presence of media, Velcade and/or Tubacin for 48 h at 37° C. DNA synthesis was measured by [^3H]-thymidine ([^3H]-TdR, Perkin Elmer, Boston, Mass.) uptake. Cells were pulsed with [^3H]TdR (0.5 μCi/well) during the last 8 h of 48 h cultures. All experiments were performed in triplicate.

[2] = system: JNK phosphorylation and caspase/PARP cleavage; assay: Western blotting for p21Cip1, p-JNK, caspases and PARP; assay type: cell-based, human
Procedure: MM cells were cultured with Velcade and/or Tubacin; harvested; washed; and lysed using lysis buffer: 50 mM Tris-HCl (pH 7.4), 150 mM NaCl, 1% NP-40, 5 mM EDTA, 5 mM NaF, 2 mM Na3VO4, 1 mM PMSF, 5 μg/ml leupeptine, and 5 μg/ml aprotinin. Cell lysates were subjected to SDS-PAGE, transferred to PVDF membrane (Bio-Rad Laboratories, Hercules, Calif.), and immunoblotted with Abs against specific proteins.
Cells cultured with tubacin and/or bortezomib were harvested; washed, and lysed using lysis buffer: 50 mM Tris-HCl (pH 7.4), 150 mM NaCl, 1% NP-40, 5 mM EDTA, 5 mM NaF, 1 mM Na3VO4, 1 mM PMSF, 5 μg/ml leupeptine, and 5 μg/ml aprotinin. Whole cell lysates were subjected to SDS-PAGE, transferred to nitrocellulose membrane (Bio-Rad Laboratories, Hercules, Calif.), and immunoblotted with specific Abs (31). Western blotting was done using anti-HDAC6, acetylated lysine, acetylated histone H3, acetylated histone H4, ubiquitin (Ub), phospho-SAPK (JNK), caspase-8 caspase-9, caspase-3, and PARP Abs (Cell Signaling, Beverly, Mass.); with anti-α-tubulin Ab (Santa Cruz Biotechnology, Santa Cruz, Calif.); as well as with anti-dynein Ab (Sigma, Saint Louis, Mo.). For immunoprecipitation, whole cell lysates were incubated with anti-Ub or dynein Abs overnight at 4° C., and then incubated with protein A/G PLUS-Agarose (Santa Cruz Biotechnology) for 2 h at 4° C., as in our prior study (31). Immunoprecipitates were then subjected to Western blotting for detection of HDAC6 and dynein.

[3] = system: PBMCs; assay: MTT cytotoxicity assay in normal PBMCs; assay type: cell-based, human; details: PBMCs from normal volunteers, tubacin 2.5-20 μM, 48 h
[4] = system: MM cell lines; assay: MTT growth inhibition / cytotoxicity assay in MM cell lines; assay type: cell-based, human; details: for growth inhibitory / cytotoxic effect as single agent: MM cell lines, MTT and 3H-thymidine uptake
Procedure: The inhibitory effect of bortezomib and/or tubacin on MM cell growth was assessed by measuring 3-(4,5-dimethylthiazol-2-yl)-2,5-diphenyl tetrazolium bromide (MTT) dye absorbance, as described previously (33). […] All experiments were performed in quadruplicate.
These cells were treated with tubacin (1.25-20 μM) for 48 h (FIG. 2A) and 72 h (FIG. 2B), and cytotoxicity was assessed by MTT assay, as describe.

[5] = system: tubulin acetylation versus lysine acetylation; assay: Immunofluorescence assay for acetylated tubulin versus acetylated lysine; assay type: cell-based
From the text: The present invention provides an immunofluorescence-based assay for identifying test agents with HDAC and/or TDAC inhibitory activity. The inventive assay is based on the use of specific antibodies for acetylated tubulin and acetylated lysine (i.e., a marker for acetylated histones). […] As described above, any type of agent, including small molecules, polymers, biomolecules, proteins, peptides, polynucleotides, etc., may be screened using the inventive assay. In certain embodiments, small molecules are screened. In certain particular embodiments, the small molecules are tubacin-like or are tubacin derivatives. In certain embodiments, the small molecules are compounds of the present invention. The test agents may also be small molecules purchased, prepared through traditional synthetic techniques, prepared through combinatorial chemistry techniques, or obtained from historical chemical collections. In certain embodiments, the test agents are biomolecules. In other embodiments, the test agents are proteins or peptides. In yet other embodiments, the test agents are polynucleotides. In certain embodiments, the test agents are polymers.
The assay involves contacting cells with a specific concentration of the test agent under specific conditions. […] There particular parameters may be determined by the operator or scientist conducting the assay as would be appreciated by one of skill in this art. After a determined time of incubation with the test compound, the cells are treated with a first primary antibody directed against acetylated tubulin and a second primary antibody directed against acetylated lysine. […] The signal from each of the secondary antibodies is measured and optionally quantitated to determine the amount of TDAC and HDAC inhibition under the specified conditions with the test agent. Optionally, the extent of inhibition is determined relative to a control in which no test agent was added. In certain embodiments, the secondary antibody is left out and the primary antibodies are uniquely labeled for identification and optionally quantification. […]

[6] = system: A549 lung cancer cells; details: previously reported; cited from earlier work
[7] = system: breast cancer cells; assay: Synergy of bortezomib and tubacin in breast cancer; assay type: cell-based
[8] = system: rat astrocytes and striatal neurons; assay: Russell body formation in rat astrocytes and striatal neurons; assay type: cell-based; details: previous experiments, comparable concentrations
[9] = system: MM.1S and RPMI cells; assay: Synergy with Velcade/Bortezomib in myeloma cell lines; assay type: cell-based

SMILES: O=C(CCCCCCC(=O)Nc1ccc([C@H]2O[C@@H](CSc3nc(-c4ccccc4)c(-c4ccccc4)o3)C[C@@H](c3ccc(CO)cc3)O2)cc1)NO [tubacin]
- growth inhibitory / cytotoxic effect of tubacin in the presence of IL-6 [1]: maintained; also recorded: did not overcome
- phosphorylation of JNK and caspase/PARP cleavage ([2]; MM.1S cells, tubacin 5 μM and/or bortezomib 5 nM, 24 h): does not trigger phosphorylation of JNK or caspase/PRAP cleavage
- induction of p21Cip1 induced by bortezomib ([2]; tubacin 5 μM + bortezomib 5 nM, MM.1S, 24 h): inhibits induction of p21^Cip1 induced by bortezomib
- induction of p21Cip1 ([2]; tubacin 5 μM alone, MM.1S, 24 h): does not trigger induction of p21^Cip1
- caspase-8/PARP cleavage ([2]; tubacin 10 μM, 0-24 h, MM.1S and RPMI8226 cells): time-dependent caspase-8/PARP cleavage is induced; also recorded: induces cytotoxicity via activation of caspases
- cytotoxicity of tubacin in PBMCs [3]: no cytotoxicity; also recorded: No adverse effect
- IC50 ([4]; Homo sapiens, 72 h, drug-sensitive and -resistant MM cell lines): 5 to 20 µM
- growth inhibitory / cytotoxic effect as single agent [4]: marked anti-proliferative, proapoptotic effects; also recorded: dose-dependent growth inhibitory effect
- growth inhibitory / cytotoxic effect as single agent ([4]; listed as Tubacin): cytotoxic
- effect of tubacin on bortezomib (Velcade)-induced cytotoxicity ([4]; MM.1S and RPMI8226 cells, 24 h, MTT): synergistically enhances bortezomib-induced cytotoxicity; also recorded: Synergy; also recorded: potently sensitizes myeloma cells to subtoxic concentrations of bortezomib; also recorded: significantly (p<0.01) augmented cytotoxicity triggered by Velcade; also recorded: synergistic anti-tumor activity
- specificity for tubulin acetylation versus lysine acetylation ([5]; A549 cells): specificity
- specificity for tubulin acetylation versus lysine acetylation ([5]; cells not given): specificity
- histone acetylation, transcriptional profile, cell cycle, viability [6]: no effect on histone acetylation, the transcriptional profile, cell cycle, or viability of A549 lung cancer cells
- synergy with bortezomib in breast cancer [7]: synergy
- Russell body formation [8]: features suggestive of Russell body formation
- synergy with Velcade ([9]; MM.1S and RPMI cells): synergy
- toxicity and synergy with Bortezomib ([9]; MM.1S cells): toxicity and synergy
- toxicity and synergy with Bortezomib ([9]; RPMI-8226 cells): toxicity and synergy
